Measured values reported in publication PMC6437697 (Journal of Medicinal Chemistry, 2019).

Experiments:
Experiment in all cases: KINOMEscan
Assay type in all cases: binding
Conditions in all cases: read-out: % control activity remaining
[1] = target: T1, DRAK2 (Homo sapiens, UniProt O94768)
T1 construct: purchased Eurofins DiscoverX KINOMEscan
T1 sequence (O94768 1-372): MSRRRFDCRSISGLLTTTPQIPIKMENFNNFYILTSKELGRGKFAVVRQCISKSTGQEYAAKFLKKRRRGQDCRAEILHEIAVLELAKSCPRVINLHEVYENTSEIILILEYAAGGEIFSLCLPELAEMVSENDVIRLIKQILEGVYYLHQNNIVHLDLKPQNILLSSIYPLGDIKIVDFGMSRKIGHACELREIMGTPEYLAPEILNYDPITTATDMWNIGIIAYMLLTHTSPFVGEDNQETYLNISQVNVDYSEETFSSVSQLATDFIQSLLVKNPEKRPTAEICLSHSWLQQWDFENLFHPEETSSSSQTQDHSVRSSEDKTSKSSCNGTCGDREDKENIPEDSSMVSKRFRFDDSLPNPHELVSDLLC

[2] = target: T2, TNNI3K (Homo sapiens, UniProt Q59H18)
T2 construct: purchased Eurofins DiscoverX KINOMEscan
T2 sequence (Q59H18 1-835): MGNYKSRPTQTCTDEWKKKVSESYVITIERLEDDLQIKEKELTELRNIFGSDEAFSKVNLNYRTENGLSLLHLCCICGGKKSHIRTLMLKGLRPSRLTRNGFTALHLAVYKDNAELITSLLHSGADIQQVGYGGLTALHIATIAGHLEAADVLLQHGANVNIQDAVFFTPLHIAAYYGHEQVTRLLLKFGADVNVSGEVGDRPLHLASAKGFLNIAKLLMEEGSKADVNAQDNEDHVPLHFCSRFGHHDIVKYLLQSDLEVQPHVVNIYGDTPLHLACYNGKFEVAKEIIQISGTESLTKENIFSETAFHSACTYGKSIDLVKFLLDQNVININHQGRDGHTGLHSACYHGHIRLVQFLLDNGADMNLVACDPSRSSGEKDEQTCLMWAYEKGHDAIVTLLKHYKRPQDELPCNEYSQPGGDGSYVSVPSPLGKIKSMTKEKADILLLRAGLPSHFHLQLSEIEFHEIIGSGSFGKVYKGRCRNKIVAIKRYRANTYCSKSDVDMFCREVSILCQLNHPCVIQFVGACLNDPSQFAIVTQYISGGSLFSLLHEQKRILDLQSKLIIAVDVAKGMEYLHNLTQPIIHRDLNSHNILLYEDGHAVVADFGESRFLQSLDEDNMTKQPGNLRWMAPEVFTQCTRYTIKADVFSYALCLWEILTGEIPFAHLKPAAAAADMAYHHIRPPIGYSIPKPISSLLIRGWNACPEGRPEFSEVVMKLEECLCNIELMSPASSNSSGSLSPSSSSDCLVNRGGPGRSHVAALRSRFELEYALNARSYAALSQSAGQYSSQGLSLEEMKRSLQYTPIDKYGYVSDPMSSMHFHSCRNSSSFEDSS

[3] = target: T3, PAK7 (Homo sapiens, UniProt Q9P286)
T3 construct: purchased Eurofins DiscoverX KINOMEscan
T3 sequence (Q9P286 whole entry): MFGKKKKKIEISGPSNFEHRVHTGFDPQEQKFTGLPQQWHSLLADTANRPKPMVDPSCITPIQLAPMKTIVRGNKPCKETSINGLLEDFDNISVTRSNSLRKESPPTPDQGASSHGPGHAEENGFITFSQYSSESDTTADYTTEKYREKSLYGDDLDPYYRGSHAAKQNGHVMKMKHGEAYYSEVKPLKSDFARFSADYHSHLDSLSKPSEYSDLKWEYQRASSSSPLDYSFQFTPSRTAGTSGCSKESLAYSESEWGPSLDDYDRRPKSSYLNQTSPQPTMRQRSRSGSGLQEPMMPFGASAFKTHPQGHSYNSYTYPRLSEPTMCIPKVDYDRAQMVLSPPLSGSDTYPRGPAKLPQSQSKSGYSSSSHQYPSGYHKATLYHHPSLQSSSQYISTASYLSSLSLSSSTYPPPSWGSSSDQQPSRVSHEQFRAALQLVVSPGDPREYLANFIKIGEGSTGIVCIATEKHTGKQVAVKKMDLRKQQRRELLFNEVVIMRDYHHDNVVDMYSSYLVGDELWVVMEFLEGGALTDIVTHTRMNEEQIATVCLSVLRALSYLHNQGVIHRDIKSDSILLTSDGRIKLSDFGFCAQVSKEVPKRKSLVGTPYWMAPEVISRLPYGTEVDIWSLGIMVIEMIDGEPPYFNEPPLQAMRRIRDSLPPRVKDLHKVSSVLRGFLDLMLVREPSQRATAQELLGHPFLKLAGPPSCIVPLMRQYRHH

[4] = target: T4, EGFR(G719C) (Homo sapiens, UniProt P00533, G719C)
T4 construct: purchased Eurofins DiscoverX KINOMEscan
T4 sequence (P00533 25-1210 G719C limits assumed): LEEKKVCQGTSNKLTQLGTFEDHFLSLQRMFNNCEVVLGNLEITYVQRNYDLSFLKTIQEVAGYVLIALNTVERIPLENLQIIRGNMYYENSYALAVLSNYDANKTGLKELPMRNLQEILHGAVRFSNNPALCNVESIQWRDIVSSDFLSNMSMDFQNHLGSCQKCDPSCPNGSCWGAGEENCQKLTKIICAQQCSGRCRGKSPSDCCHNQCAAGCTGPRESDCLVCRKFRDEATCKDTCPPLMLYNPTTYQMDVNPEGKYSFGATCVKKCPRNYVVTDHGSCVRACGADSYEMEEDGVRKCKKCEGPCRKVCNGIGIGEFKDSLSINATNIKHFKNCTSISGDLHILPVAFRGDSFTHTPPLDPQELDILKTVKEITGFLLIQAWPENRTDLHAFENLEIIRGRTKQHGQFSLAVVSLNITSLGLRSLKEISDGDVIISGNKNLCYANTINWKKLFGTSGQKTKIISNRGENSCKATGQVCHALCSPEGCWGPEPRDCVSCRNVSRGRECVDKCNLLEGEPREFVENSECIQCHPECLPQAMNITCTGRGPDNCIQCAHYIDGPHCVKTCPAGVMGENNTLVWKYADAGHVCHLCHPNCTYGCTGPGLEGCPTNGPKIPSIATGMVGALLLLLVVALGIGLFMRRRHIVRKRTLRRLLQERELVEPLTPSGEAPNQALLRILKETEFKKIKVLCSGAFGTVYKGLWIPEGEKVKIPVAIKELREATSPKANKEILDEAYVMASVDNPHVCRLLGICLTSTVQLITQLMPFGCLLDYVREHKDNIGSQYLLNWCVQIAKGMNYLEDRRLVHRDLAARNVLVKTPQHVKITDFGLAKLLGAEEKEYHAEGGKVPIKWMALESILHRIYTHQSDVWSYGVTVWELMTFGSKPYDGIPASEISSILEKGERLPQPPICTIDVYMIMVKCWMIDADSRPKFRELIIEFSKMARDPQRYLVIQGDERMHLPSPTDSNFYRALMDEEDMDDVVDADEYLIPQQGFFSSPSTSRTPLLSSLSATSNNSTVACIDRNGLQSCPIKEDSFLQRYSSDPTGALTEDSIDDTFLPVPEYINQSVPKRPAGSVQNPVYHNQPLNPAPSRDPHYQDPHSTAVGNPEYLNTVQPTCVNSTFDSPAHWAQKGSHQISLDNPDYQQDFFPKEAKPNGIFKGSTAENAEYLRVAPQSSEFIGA

[5] = target: T5, PRKCH (Homo sapiens, UniProt P24723)
T5 construct: purchased Eurofins DiscoverX KINOMEscan
T5 sequence (P24723 whole entry): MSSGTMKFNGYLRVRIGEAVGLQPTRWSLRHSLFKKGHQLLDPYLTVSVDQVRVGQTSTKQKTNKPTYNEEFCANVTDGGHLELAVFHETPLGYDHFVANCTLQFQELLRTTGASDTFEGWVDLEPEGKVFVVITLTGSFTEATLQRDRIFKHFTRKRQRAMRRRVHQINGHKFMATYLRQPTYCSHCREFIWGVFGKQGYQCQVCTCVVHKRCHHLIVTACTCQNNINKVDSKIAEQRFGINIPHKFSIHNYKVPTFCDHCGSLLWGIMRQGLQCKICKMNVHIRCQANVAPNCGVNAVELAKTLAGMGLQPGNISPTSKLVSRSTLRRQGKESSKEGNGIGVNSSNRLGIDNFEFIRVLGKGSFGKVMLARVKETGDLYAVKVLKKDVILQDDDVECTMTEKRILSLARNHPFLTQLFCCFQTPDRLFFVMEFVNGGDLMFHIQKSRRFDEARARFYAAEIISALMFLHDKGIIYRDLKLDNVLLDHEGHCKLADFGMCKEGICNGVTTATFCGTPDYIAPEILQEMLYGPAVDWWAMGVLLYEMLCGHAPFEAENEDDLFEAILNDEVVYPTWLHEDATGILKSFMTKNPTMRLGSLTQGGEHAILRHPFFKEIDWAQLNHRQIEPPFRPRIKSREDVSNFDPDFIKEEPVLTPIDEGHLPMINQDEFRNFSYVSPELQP

[6] = target: T6, TIE2 (Homo sapiens, UniProt Q02763)
T6 construct: purchased Eurofins DiscoverX KINOMEscan

[7] = target: T7, LIMK2 (Homo sapiens, UniProt P53671)
T7 construct: purchased Eurofins DiscoverX KINOMEscan
T7 sequence (P53671 whole entry): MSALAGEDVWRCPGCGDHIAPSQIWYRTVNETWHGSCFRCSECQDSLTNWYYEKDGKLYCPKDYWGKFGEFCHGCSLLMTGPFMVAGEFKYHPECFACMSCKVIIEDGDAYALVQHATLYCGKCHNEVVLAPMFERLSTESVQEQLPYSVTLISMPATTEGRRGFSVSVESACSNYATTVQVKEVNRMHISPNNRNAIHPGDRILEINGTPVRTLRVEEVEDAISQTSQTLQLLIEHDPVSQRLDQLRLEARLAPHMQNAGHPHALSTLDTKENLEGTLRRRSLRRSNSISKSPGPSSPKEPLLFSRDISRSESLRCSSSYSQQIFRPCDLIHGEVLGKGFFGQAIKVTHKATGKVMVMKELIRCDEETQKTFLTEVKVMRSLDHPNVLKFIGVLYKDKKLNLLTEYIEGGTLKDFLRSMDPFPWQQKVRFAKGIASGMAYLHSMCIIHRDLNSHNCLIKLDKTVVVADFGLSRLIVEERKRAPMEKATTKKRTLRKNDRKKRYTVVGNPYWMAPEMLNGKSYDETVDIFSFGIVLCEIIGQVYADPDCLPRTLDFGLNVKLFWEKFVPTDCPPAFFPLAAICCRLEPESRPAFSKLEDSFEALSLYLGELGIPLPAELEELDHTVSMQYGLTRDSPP

[8] = target: T8, MAP3K2 (Homo sapiens, UniProt Q9Y2U5)
T8 construct: purchased Eurofins DiscoverX KINOMEscan
T8 sequence (Q9Y2U5 1-619): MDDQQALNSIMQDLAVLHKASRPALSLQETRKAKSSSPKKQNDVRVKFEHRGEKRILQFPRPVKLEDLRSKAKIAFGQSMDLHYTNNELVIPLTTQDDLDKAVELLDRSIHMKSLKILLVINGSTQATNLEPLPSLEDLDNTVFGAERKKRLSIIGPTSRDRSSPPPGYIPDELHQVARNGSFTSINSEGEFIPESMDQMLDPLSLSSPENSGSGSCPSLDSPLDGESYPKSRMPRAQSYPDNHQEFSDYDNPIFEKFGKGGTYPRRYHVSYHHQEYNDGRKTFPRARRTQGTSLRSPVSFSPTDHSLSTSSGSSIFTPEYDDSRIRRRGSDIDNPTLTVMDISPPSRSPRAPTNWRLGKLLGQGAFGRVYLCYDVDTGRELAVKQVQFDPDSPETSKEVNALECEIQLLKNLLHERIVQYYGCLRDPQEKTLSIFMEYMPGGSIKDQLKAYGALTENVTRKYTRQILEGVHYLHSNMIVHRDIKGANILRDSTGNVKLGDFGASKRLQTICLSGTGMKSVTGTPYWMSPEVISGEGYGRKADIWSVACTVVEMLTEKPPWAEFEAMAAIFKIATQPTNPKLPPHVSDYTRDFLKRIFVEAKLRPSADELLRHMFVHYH

[9] = target: T9, MET (Homo sapiens, UniProt P08581)
T9 construct: purchased Eurofins DiscoverX KINOMEscan
T9 sequence (P08581 25-1390): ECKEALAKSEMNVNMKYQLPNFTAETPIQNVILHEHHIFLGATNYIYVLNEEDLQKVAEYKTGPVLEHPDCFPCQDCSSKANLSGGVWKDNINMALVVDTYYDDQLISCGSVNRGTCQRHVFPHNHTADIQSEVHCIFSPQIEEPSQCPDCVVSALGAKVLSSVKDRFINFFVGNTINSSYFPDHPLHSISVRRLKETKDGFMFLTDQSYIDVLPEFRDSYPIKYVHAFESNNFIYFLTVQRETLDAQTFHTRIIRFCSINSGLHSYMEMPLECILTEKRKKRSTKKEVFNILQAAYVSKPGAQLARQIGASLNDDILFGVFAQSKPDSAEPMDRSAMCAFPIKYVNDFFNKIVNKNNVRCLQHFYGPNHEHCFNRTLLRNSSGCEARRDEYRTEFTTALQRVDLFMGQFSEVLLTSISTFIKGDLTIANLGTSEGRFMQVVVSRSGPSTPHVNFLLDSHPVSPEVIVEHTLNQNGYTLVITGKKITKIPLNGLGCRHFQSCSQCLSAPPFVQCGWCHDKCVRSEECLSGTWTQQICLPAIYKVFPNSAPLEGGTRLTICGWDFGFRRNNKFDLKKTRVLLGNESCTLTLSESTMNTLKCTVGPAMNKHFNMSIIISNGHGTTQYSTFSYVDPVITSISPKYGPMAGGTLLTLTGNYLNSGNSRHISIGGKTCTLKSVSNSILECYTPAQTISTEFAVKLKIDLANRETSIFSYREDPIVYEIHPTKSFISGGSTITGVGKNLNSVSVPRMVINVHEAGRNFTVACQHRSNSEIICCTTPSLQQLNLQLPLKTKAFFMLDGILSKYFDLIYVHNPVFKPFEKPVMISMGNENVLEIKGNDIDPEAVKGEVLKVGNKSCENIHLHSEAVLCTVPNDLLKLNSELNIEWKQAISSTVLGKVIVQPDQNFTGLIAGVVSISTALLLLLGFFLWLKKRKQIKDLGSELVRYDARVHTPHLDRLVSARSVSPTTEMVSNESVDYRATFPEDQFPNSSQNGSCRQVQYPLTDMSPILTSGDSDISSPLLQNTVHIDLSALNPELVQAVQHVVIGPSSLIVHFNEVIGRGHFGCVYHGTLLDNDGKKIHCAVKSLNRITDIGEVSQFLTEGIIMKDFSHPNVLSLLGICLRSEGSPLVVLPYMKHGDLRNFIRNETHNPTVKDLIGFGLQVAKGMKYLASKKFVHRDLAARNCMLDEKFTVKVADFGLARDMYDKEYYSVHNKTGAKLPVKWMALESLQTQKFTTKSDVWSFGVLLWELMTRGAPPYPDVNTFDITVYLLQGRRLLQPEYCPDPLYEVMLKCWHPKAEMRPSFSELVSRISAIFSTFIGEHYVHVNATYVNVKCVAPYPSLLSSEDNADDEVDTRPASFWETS

[10] = target: T10, CTK (Homo sapiens, UniProt P42679)
T10 construct: purchased Eurofins DiscoverX KINOMEscan
T10 sequence (P42679 1-507): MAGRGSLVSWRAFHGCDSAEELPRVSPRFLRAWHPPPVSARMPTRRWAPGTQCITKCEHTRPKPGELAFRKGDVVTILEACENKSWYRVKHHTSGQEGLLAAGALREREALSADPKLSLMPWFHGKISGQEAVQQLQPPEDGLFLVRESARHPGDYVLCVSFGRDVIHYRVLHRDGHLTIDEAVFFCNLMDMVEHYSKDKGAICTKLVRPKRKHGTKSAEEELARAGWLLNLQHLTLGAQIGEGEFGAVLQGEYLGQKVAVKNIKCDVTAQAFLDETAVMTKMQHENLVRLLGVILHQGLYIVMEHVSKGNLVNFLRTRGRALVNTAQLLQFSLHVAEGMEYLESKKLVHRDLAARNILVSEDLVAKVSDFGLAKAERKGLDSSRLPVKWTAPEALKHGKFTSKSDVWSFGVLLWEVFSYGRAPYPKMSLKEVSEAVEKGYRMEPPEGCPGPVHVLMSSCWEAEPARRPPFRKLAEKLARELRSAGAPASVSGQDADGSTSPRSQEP

SMILES	remaining binding at 1 µM [1]	remaining binding at 1 µM [2]	remaining binding at 1 µM [3]	remaining binding at 1 µM [4]	remaining binding at 1 µM [5]	remaining binding at 1 µM [6]	remaining binding at 1 µM [7]	remaining binding at 1 µM [8]	remaining binding at 1 µM [9]	remaining binding at 1 µM [10]
Clc1cc(NCC2CC2)c2ncc(-c3ccc4[nH]ncc4c3)n2n1 [compound 2, 6-Chloro-N-(cyclopropylmethyl)-3-(1H-indazol-5-yl)imidazo[1,2-b]pyridazin-8-amine]	93%	97%	98%	91%	96%	78%	94%	74%	90%	91%
O=C(CN1CCOCC1)N[C@H]1CC[C@H](Nc2cc(Cl)nn3c(-c4ccc5[nH]ncc5c4)cnc23)CC1 [compound 26]	61%	100%	93%	93%	100%	89%	85%	100%	100%	95%
CN1CCC(CNc2cc(Cl)nn3c(-c4cc5nc(Nc6ccccc6)[nH]c5cc4F)cnc23)CC1 [compound 31, 6-Chloro-3-(6-fluoro-2-(phenylamino)-1H-benzo[d]imidazol-5-yl)-N-((1-methylpiperidin-4-yl)methyl)imidazo[1,2-b]pyridazin-8-amine]	92%	100%	95%	71%	100%	91%	100%	62%	97%	69%
